Values quoted from earlier work in patent publication US9090606B2, “Compounds” (CHIESI FARMACEUTICI S.p.A., priority 2012, dated 2015).

Key:
[1] = system: smoking model of COPD in mice
[2] = patients with severe disease, frequent exacerbations and mucus hypersecretion

SMILES: O=C(Nc1c(Cl)cncc1Cl)c1ccc(OC(F)F)c(OCC2CC2)c1 [roflumilast]
- reduction of the numbers of neutrophils in sputum (COPD patients; COPD patients, oral, given over 4 weeks): 36%
- improvement of FEV 1 (COPD patients; [2]): approximately 50 mL
- reduction of exacerbation (COPD patients; [2]): about 15%
- effect on lung inflammation and emphysema [1]: inhibits lung inflammation and emphysema
